In patent US20240381872A1, “SUBSTITUTED 2,3-DIHYDRO[1,3]THIAZOLO[4,5-B]PYRIDINES, SALTS THEREOF AND THEIR USE AS HERBICIDALLY ACTIVE SUBSTANCES” (BAYER AKTIENGESELLSCHAFT, priority 2021, published 2024):

Columns and labels:
Assay type in all cases: in vivo
[1] = tested on: Amaranthus retroflexus (AMARE); experiment: Herbicidal post-emergence action, section B (Table B11); details: visual rating about 3 weeks after treatment vs untreated controls
Description: (§1) Seeds of mono- and dicotyledonous weed plants were placed in plastic pots in sandy loam soil (doubly sown with in each case one species of mono- or dicotyledonous weed plants per pot), covered with soil and cultivated in a greenhouse under controlled growth conditions. 2 to 3 weeks after sowing, the test plants were treated at the one-leaf stage. The compounds of the invention, formulated in the form of wettable powders (WP) or as emulsion concentrates (EC), were applied onto the green parts of the plants as aqueous suspension or emulsion with addition of 0.5% additive at a water application rate of 600 liters per hectare (converted). After the test plants had been kept in the greenhouse under optimum growth conditions for about 3 weeks, the activity of the preparations was rated visually in comparison to untreated controls. For example, 100% activity=the plants have died, 0% activity=like control plants.

[2] = tested on: Stellaria media (STEME); experiment: Herbicidal pre-emergence action, section A (Table A9)
Source text: (§2) Seeds of mono- and dicotyledonous weed plants were sown in plastic pots (double sowings with one species of mono- and one species of dicotyledonous weed plants per pot), in sandy loam, and covered with soil. The compounds according to the invention, formulated in the form of wettable powders (WP) or as emulsifiable concentrates (EC), were applied to the surface of the covering soil as aqueous suspension or emulsion, with the addition of 0.5% of an additive, at an application rate of 600 l of water per hectare (converted). Following treatment, the pots were placed in a greenhouse and kept under optimum growth conditions for the test plants. The visual grading of the damage to the test plants was carried out after ca. 3 weeks in comparison to untreated controls (herbicidal effect in percent (%): 100% effect=plants have died off, 0% effect=as control plants).

[3] = tested on: Echinochloa crus-galli (ECHCG); experiment: Herbicidal pre-emergence action, section A (Table A3); details: application rate 1280 g/ha, visual grading after ca. 3 weeks vs untreated controls; for pest or weed control at 1280 g/ha: Echinochloa crus-galli, pre-emergence, 504 h, read-out: pre-emergence activity against ECHCG in %
Source text: as §2

[4] = tested on: Kochia scoparia (KCHSC); experiment: Herbicidal post-emergence action, section B (Table B4); details: application rate 1280 g/ha; visual rating about 3 weeks after treatment vs untreated controls
Description: as §1

[5] = tested on: Setaria viridis (SETVI); experiment: Herbicidal pre-emergence action, section A (Table A8); details: for pest or weed control at 1280 g/ha: Setaria viridis, 504 h, read-out: pre-emergence activity against SETVI in %
Source text: as §2

[6] = tested on: Amaranthus retroflexus (AMARE); experiment: Herbicidal pre-emergence action, section A (Table A11)
Source text: as §2

[7] = tested on: Veronica persica (VERPE); experiment: Herbicidal post-emergence action, section B (Table B10); details: application rate 1280 g/ha; visual rating about 3 weeks after treatment vs untreated controls
Description: as §1

[8] = tested on: Veronica persica (VERPE); experiment: Herbicidal pre-emergence action, section A (Table A10); details: application rate 1280 g/ha
Source text: as §2

[9] = tested on: Digitaria sanguinalis (DIGSA); experiment: Herbicidal pre-emergence action, section A (Table A12); details: application rate 1280 g/ha; for pest or weed control at 1280 g/ha: Digitaria sanguinalis, 504 h, read-out: pre-emergence activity against DIGSA in %
Source text: as §2

[10] = tested on: Poa annua (POAAN); experiment: Herbicidal post-emergence action, section B (Table B7); details: application rate 1280 g/ha, visual rating about 3 weeks after treatment vs untreated controls
Description: as §1

[11] = tested on: Kochia scoparia (KCHSC); experiment: Herbicidal pre-emergence action, section A (Table A4); details: application rate 1280 g/ha, visual grading after ca. 3 weeks vs untreated controls
Source text: as §2

[12] = tested on: Poa annua (POAAN); experiment: Herbicidal pre-emergence action, section A (Table A7); details: visual grading after ca. 3 weeks vs untreated controls
Source text: as §2

[13] = tested on: Lolium rigidum (LOLRI); experiment: Herbicidal pre-emergence action, section A (Table A5); details: application rate 1280 g/ha, visual grading after ca. 3 weeks vs untreated controls
Source text: as §2

[14] = tested on: Matricaria inodora (MATIN); experiment: Herbicidal pre-emergence action, section A (Table A6); details: Tripleurospermum inodorum, pre-emergence, 504 h; application rate 1280 g/ha; visual grading after ca. 3 weeks vs untreated controls; read-out: pre-emergence activity against MATIN in %
Source text: as §2

## Cc1cccc(-c2nc3c(cc2Br)SCN3B(N)N)c1C [Example I-105]
[1]; application rate 1280 g/ha
  post-emergence activity against AMARE in %: 90%

## Cc1cc2c(nc1-c1cccc(Cl)c1F)N(S(C)(=O)=O)CS2 [Example I-111]
[2]; application rate 1280 g/ha
  pre-emergence activity against STEME in %: 90%
[3]
  pre-emergence activity against ECHCG in %: 100%
[4]
  post-emergence activity against KCHSC in %: 90%

## O=C(N1CSc2cc(Br)c(-c3cccc(Cl)c3F)nc21)C12CCCC1C(Cl)=NO2 (stereo not shown) [Example I-126]
[2]; application rate 1280 g/ha
  pre-emergence activity against STEME in %: 90%
[5]; application rate 1280 g/ha
  pre-emergence activity against SETVI in %: 90%
[1]; application rate 320 g/ha
  post-emergence activity against AMARE in %: 90%
[6]; application rate 320 g/ha
  pre-emergence activity against AMARE in %: 90%
[7]
  post-emergence activity against VERPE in %: 90%

## N#CCS(=O)(=O)N1CSc2cc(Br)c(-c3cccc(Cl)c3F)nc21 [Example I-131]
[2]; application rate 1280 g/ha
  pre-emergence activity against STEME in %: 90%
[1]; application rate 1280 g/ha
  post-emergence activity against AMARE in %: 90%
[6]; application rate 1280 g/ha
  pre-emergence activity against AMARE in %: 90%
[7]
  post-emergence activity against VERPE in %: 90%

## CCS(=O)(=O)N1CSc2cc(Br)c(-c3cccc(Cl)c3F)nc21 [Example I-132]
[8]
  pre-emergence activity against VERPE in %: 90%
[1]; application rate 1280 g/ha
  post-emergence activity against AMARE in %: 90%
[7]
  post-emergence activity against VERPE in %: 90%

## CCS(=O)(=O)N1C[S+]([O-])c2cc(Br)c(-c3ccccc3Cl)nc21 (stereo not shown) [Example I-134]
[2]; Stellaria media, 504 h, application rate 1280 g/ha, read-out: pre-emergence activity against STEME in %
  pest or weed control at 1280 g/ha: 90%
[9]
  pest or weed control at 1280 g/ha: 100%
[3]
  pest or weed control at 1280 g/ha: 100%
[5]; application rate 1280 g/ha
  pest or weed control at 1280 g/ha: 100%
[10]; Poa annua, post-emergence, 504 h, read-out: post-emergence activity against POAAN in %
  pest or weed control at 1280 g/ha: 90%
[6]; Amaranthus retroflexus, 504 h, application rate 1280 g/ha, read-out: pre-emergence activity against AMARE in %
  pest or weed control at 1280 g/ha: 90%
[11]; Bassia scoparia, pre-emergence, 504 h, read-out: pre-emergence activity against KCHSC in %
  pest or weed control at 1280 g/ha: 90%
[12]; Poa annua, pre-emergence, 504 h, application rate 1280 g/ha, read-out: pre-emergence activity against POAAN in %
  pest or weed control at 1280 g/ha: 100%

## Cc1cccc(-c2nc3c(cc2Br)SCN3C(=O)C2(C)CC(Cl)=NO2)c1C (stereo not shown) [Example I-140]
[2]; application rate 1280 g/ha
  pre-emergence activity against STEME in %: 90%
[6]; application rate 1280 g/ha
  pre-emergence activity against AMARE in %: 90%
[12]; application rate 1280 g/ha
  pre-emergence activity against POAAN in %: 100%

## COCCOCCOCC(=O)N1CSc2cc(C)c(-c3cccc(F)c3F)nc21 [Example I-149]
[13]
  pre-emergence activity against LOLRI in %: 90%
[2]; application rate 1280 g/ha
  pre-emergence activity against STEME in %: 90%
[9]
  pre-emergence activity against DIGSA in %: 100%
[8]
  pre-emergence activity against VERPE in %: 90%
[3]
  pre-emergence activity against ECHCG in %: 100%
[5]; application rate 320 g/ha
  pre-emergence activity against SETVI in %: 100%
[10]
  post-emergence activity against POAAN in %: 90%
[6]; application rate 320 g/ha
  pre-emergence activity against AMARE in %: 90%
[11]
  pre-emergence activity against KCHSC in %: 90%
[12]; application rate 1280 g/ha
  pre-emergence activity against POAAN in %: 100%

## CCC(=O)N1C[S+]([O-])c2cc(C)c(-c3cc(F)ccc3F)nc21 (stereo not shown) [Example I-167]
[14]
  pest or weed control at 1280 g/ha: 90%
[13]; Lolium rigidum, pre-emergence, 504 h, read-out: pre-emergence activity against LOLRI in %
  pest or weed control at 1280 g/ha: 100%
[2]; Stellaria media, 504 h, application rate 320 g/ha, read-out: pre-emergence activity against STEME in %
  pest or weed control at 320 g/ha: 90%
[9]
  pest or weed control at 1280 g/ha: 100%
[8]; Veronica persica, 504 h, read-out: pre-emergence activity against VERPE in %
  pest or weed control at 1280 g/ha: 90%
[3]
  pest or weed control at 1280 g/ha: 100%
[5]; application rate 1280 g/ha
  pest or weed control at 1280 g/ha: 90%
[6]; Amaranthus retroflexus, 504 h, application rate 320 g/ha, read-out: pre-emergence activity against AMARE in %
  pest or weed control at 320 g/ha: 90%
[12]; Poa annua, pre-emergence, 504 h, application rate 320 g/ha, read-out: pre-emergence activity against POAAN in %
  pest or weed control at 320 g/ha: 100%
